According to patent publication US20230265116A1, “DEGRADATION OF (EGFR) BY CONJUGATION OF EGFR INHIBITORS WITH E3 LIGASE LIGAND AND METHODS OF USE” (BEIGENE, LTD., priority 2020, published 2023):
Read-outs that look alike come from different tables or passages of the source.

Key:
[1] = tested on: EGFR Del19/T790M/C797S (H1975-clone #28); test: EGFR degradation HTRF assay, H1975-clone #28 DTC cells; type: cell-based
How it was run: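 Cells were dosed on day 2 with an 8-point, 5-fold dilution series starting at 10 uM final and incubated 16h at 37° C. After lysis for 1 hour, HTRF antibodies were added overnight at room temperature and the plate was read at 665/620 nm. Degradation was normalised to DMSO wells and fitted for DC50 and Dmax.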

[2] = molecular target: T1, EGFR L858R/T790M/C797S (BaF3-LTC cells) (Homo sapiens, UniProt P00533, C797S/L858R/T790M); test: EGFR degradation HTRF assay, BaF3-LTC cells; type: cell-based; conditions: BaF3-LTC cells; for DC50: EGFR degradation, IC50 (DC50) from curve fit, read-out: DC50(nM) BaF3-LTC; for Dmax: read-out: Dmax (%) BaF3-LTC
T1 construct: expressed in transfected cells; host or cells: BaF3
T1 sequence (P00533 25-1210 T790M/C797S/L858R): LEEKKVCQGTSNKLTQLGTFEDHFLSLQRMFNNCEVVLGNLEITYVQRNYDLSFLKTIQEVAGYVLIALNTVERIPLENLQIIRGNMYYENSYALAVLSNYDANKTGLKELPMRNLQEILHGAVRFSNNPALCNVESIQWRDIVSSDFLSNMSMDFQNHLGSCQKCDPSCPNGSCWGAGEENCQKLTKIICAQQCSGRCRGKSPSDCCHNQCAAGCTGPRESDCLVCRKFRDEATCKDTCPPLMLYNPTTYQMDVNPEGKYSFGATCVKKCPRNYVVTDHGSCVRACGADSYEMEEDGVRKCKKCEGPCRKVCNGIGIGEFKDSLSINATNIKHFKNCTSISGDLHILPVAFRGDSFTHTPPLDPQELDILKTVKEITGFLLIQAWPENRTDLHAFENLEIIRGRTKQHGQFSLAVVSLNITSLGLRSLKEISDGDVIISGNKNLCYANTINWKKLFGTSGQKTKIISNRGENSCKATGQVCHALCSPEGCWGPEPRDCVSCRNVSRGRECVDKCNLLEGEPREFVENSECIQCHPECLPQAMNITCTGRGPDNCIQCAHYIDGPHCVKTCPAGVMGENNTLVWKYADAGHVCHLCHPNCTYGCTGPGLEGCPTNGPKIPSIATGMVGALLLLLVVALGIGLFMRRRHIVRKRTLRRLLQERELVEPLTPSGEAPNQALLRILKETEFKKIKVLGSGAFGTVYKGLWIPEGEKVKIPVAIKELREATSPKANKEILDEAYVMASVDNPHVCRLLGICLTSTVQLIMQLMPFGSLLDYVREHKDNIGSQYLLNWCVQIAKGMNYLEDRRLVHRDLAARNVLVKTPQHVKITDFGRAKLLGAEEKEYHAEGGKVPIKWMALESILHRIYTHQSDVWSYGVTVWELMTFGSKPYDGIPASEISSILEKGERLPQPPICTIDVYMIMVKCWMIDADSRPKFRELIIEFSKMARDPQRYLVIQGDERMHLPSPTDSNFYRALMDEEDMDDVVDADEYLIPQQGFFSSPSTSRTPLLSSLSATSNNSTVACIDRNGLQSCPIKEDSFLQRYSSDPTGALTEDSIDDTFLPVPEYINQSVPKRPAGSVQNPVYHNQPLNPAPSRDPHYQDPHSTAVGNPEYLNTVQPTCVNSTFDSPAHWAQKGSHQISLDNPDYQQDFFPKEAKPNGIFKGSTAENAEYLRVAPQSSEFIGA
How it was run: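 Cells treated 16 h at 37 °C, 5% CO2 in medium with 0.2% DMSO; top final concentration 10 uM, 5-fold dilution, 8 doses. Lysates read by HTRF (665/620 nm); degradation % versus DMSO high control, DC50 from four-parameter fit, Dmax as maximal degradation.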

[3] = H1975 # 28 DTC cells; EGFR degradation, IC50 (DC50) from curve fit; read-out: DC50(nM) H1975 # 28 DTC
[4] = H1975 # 28 DTC cells; maximum percentage of inhibition (degradation)
[5] = maximum percentage of inhibition (degradation)

Compound	DC50 [1, 3] [nM]	Dmax (%) H1975 # 28 DTC [1, 4] [%]	DC50 [2] [nM]	Dmax [2, 5] [%]	Dmax (%) BaF3-LTC [2, 5] [%]	DC50 ([1]; read-out: DC50(nM) H1975 # 28 DTC; H1975 # 28 DTC cells; EGFR degradation, IC50 (DC50) from curve fit) [nM]
CCc1ccc2c(P(C)(C)=O)c(Nc3nc(Nc4cc(CC)c(N5CCC(N6CCN(CCCOc7cc(F)c([C@H]8CCC(=O)NC8=O)c(F)c7)CC6)CC5)cc4OC)ncc3Br)ccc2n1 [Example 734, (R)-3-(4-(3-(4-(1-(4-((5-bromo-4-((5-(dimethylphosphoryl)-2-ethylquinolin-6-yl)amino)pyrimidin-2-yl)amino)-2-ethyl-5-methoxyphenyl)piperidin-4-yl)piperazin-1-yl)propoxy)-2,6-difluorophenyl)piperidine-2,6-dione]	0.9	76.3	7.79	92.2		
CCOc1cc(N2CCC(N3CCN(CCc4c(F)ccc5c4oc(=O)n5C4CCC(=O)NC4=O)CC3)CC2)c(CC)cc1Nc1ncc(Br)c(Nc2cc(F)c3nc(CC)ccc3c2P(C)(C)=O)n1 (centres unmarked) [Example 614, 3-(7-(2-(4-(1-(4-((5-bromo-4-((5-(dimethylphosphoryl)-2-ethyl-8-fluoroquinolin-6-yl)amino)pyrimidin-2-yl)amino)-5-ethoxy-2-ethylphenyl)piperidin-4-yl)piperazin-1-yl)ethyl)-6-fluoro-2-oxobenzo[d]oxazol-3(2H)-yl)piperidine-2,6-dione]	2.61	74	23.8		80.74	
CCc1cc(Nc2ncc(Br)c(Nc3ccc4nc(CO)ccc4c3P(C)(C)=O)n2)c(OC)cc1N1CCC(N2CCN(C(=O)[C@@H]3CCN(c4cc(F)c(C5CCC(=O)NC5=O)c(F)c4)C3)CC2)CC1 (stereo partly drawn) [Example 696, 3-(4-((R)-3-(4-(1-(4-((5-bromo-4-((5-(dimethylphosphoryl)-2-(hydroxymethyl)quinolin-6-yl)amino)pyrimidin-2-yl)amino)-2-ethyl-5-methoxyphenyl)piperidin-4-yl)piperazine-1-carbonyl)pyrrolidin-1-yl)-2,6-difluorophenyl)piperidine-2,6-dione]	0.647	75.49	4.53	92.3		
CCc1cc(Nc2ncc(Br)c(Nc3ccc4c(C)nccc4c3P(C)(C)=O)n2)c(OC)cc1N1CCC(N2CCN(CCc3cc(F)c([C@H]4CCC(=O)NC4=O)c(F)c3)CC2)CC1 [Example 684, (R)-3-(4-(2-(4-(1-(4-((5-bromo-4-((5-(dimethylphosphoryl)-1-methylisoquinolin-6-yl)amino)pyrimidin-2-yl)amino)-2-ethyl-5-methoxyphenyl)piperidin-4-yl)piperazin-1-yl)ethyl)-2,6-difluorophenyl)piperidine-2,6-dione]	1.06	88.35	12.4	91.4		
CCOc1cc(N2CCC(N3CCN(CCCc4cc(OC)cc5c4oc(=O)n5C4CCC(=O)NC4=O)CC3)CC2)c(CC)cc1Nc1ncc(Br)c(Nc2ccc3c(=O)n(CC)ncc3c2P(C)(C)=O)n1 (centres unmarked) [Example 598, 3-(7-(3-(4-(1-(4-((5-bromo-4-((5-(dimethylphosphoryl)-2-ethyl-1-oxo-1,2-dihydrophthalazin-6-yl)amino)pyrimidin-2-yl)amino)-5-ethoxy-2-ethylphenyl)piperidin-4-yl)piperazin-1-yl)propyl)-5-methoxy-2-oxobenzo[d]oxazol-3(2H)-yl)piperidine-2,6-dione]	1.64	81.26	18.8	88.4		
CCc1ccc2c(P(C)(C)=O)c(Nc3nc(Nc4cc(C)c(N5CCC(N6CCN(CCc7ccc8c(c7)oc(=O)n8C7CCC(=O)NC7=O)CC6)CC5)cc4OC4CC4)ncc3Br)ccc2n1 (centres unmarked) [Example 568, 3-(6-(2-(4-(1-(4-((5-bromo-4-((5-(dimethylphosphoryl)-2-ethylquinolin-6-yl)amino)pyrimidin-2-yl)amino)-5-cyclopropoxy-2-methylphenyl)piperidin-4-yl)piperazin-1-yl)ethyl)-2-oxobenzo[d]oxazol-3(2H)-yl)piperidine-2,6-dione]	2.38	91.62	10.4	87		
CCOc1cc(N2CCC(N3CCN(CC4CN(c5cccc6c5oc(=O)n6C5CCC(=O)NC5=O)C4)CC3)CC2)c(CC)cc1Nc1ncc(Br)c(Nc2ccc3c(=O)n(CC)ncc3c2P(C)(C)=O)n1 (centres unmarked) [Example 645, 3-(7-(3-((4-(1-(4-((5-bromo-4-((5-(dimethylphosphoryl)-2-ethyl-1-oxo-1,2-dihydrophthalazin-6-yl)amino)pyrimidin-2-yl)amino)-5-ethoxy-2-ethylphenyl)piperidin-4-yl)piperazin-1-yl)methyl)azetidin-1-yl)-2-oxobenzo[d]oxazol-3(2H)-yl)piperidine-2,6-dione]	6.2	84.26	22.7	95.8		
CCOc1cc(N2CCC(N3CCN(CCc4cccc5c4oc(=O)n5C4CCC(=O)NC4=O)CC3)CC2)c(CC)cc1Nc1ncc(Br)c(Nc2ccc3nc(CC)ncc3c2P(C)(C)=O)n1 (centres unmarked) [Example 563, 3-(7-(2-(4-(1-(4-((5-bromo-4-((5-(dimethylphosphoryl)-2-ethylquinazolin-6-yl)amino)pyrimidin-2-yl)amino)-5-ethoxy-2-ethylphenyl)piperidin-4-yl)piperazin-1-yl)ethyl)-2-oxobenzo[d]oxazol-3(2H)-yl)piperidine-2,6-dione]		81.88	7.69			0.732
Cc1ccc2c(P(C)(C)=O)c(Nc3nc(Nc4cc(C)c(N5CCC(N6CCN(CCc7cccc8c7n(C)c(=O)n8C7CCC(=O)NC7=O)CC6)CC5)cc4OC4CC4)ncc3Br)ccc2n1 (centres unmarked) [Example 602, 3-(4-(2-(4-(1-(4-((5-bromo-4-((5-(dimethylphosphoryl)-2-methylquinolin-6-yl)amino)pyrimidin-2-yl)amino)-5-cyclopropoxy-2-methylphenyl)piperidin-4-yl)piperazin-1-yl)ethyl)-3-methyl-2-oxo-2,3-dihydro-1H-benzo[d]imidazol-1-yl)piperidine-2,6-dione]	0.913	77.98	3.66	93		
COc1cc(N2CCC(N3CCN(C(=O)[C@@H]4CCN(c5cc(F)c([C@H]6CCC(=O)NC6=O)c(F)c5)C4)CC3)CC2)c(C)cc1Nc1ncc(Br)c(Nc2ccc3nc(C)c(F)cc3c2P(C)(C)=O)n1 [Example 732, (R)-3-(4-((R)-3-(4-(1-(4-((5-bromo-4-((5-(dimethylphosphoryl)-3-fluoro-2-methylquinolin-6-yl)amino)pyrimidin-2-yl)amino)-5-methoxy-2-methylphenyl)piperidin-4-yl)piperazine-1-carbonyl)pyrrolidin-1-yl)-2,6-difluorophenyl)piperidine-2,6-dione]	0.624	86.49	4.07			
CCOc1cc(N2CCC(N3CCN(CC4CCN(c5cc(F)cc6c5oc(=O)n6C5CCC(=O)NC5=O)CC4)CC3)CC2)c(CC)cc1Nc1ncc(Br)c(Nc2ccc3nc(CC)ccc3c2P(C)(C)=O)n1 (centres unmarked) [Example 621, 3-(7-(4-((4-(1-(4-((5-bromo-4-((5-(dimethylphosphoryl)-2-ethylquinolin-6-yl)amino)pyrimidin-2-yl)amino)-5-ethoxy-2-ethylphenyl)piperidin-4-yl)piperazin-1-yl)methyl)piperidin-1-yl)-5-fluoro-2-oxobenzo[d]oxazol-3(2H)-yl)piperidine-2,6-dione]	1.61	77.44	15	93.9		
CCOc1cc(N2CCC(N3CCN(CC4CN(c5cc(F)c([C@H]6CCC(=O)NC6=O)c(F)c5)C4)CC3)CC2)c(CC)cc1Nc1ncc(Br)c(Nc2ccc3nc(CC)ncc3c2P(C)(C)=O)n1 [Example 590, (R)-3-(4-(3-((4-(1-(4-((5-bromo-4-((5-(dimethylphosphoryl)-2-ethylquinazolin-6-yl)amino)pyrimidin-2-yl)amino)-5-ethoxy-2-ethylphenyl)piperidin-4-yl)piperazin-1-yl)methyl)azetidin-1-yl)-2,6-difluorophenyl)piperidine-2,6-dione]	0.697	87.82	11.8	91.7		
CCc1ccc2c(P(C)(C)=O)c(Nc3nc(Nc4cc(CC)c(N5CCC(N6CCN(C(=O)CN7CCN(c8cc(F)c([C@H]9CCC(=O)NC9=O)c(F)c8)CC7)CC6)CC5)cc4OC)ncc3Br)ccc2n1 [Example 665, (R)-3-(4-(4-(2-(4-(1-(4-((5-bromo-4-((5-(dimethylphosphoryl)-2-ethylquinolin-6-yl)amino)pyrimidin-2-yl)amino)-2-ethyl-5-methoxyphenyl)piperidin-4-yl)piperazin-1-yl)-2-oxoethyl)piperazin-1-yl)-2,6-difluorophenyl)piperidine-2,6-dione]	0.543	85.47	1.49	97.9		
